Assay: Solubilisation of poorly soluble active ingredients in the Olea europea triglycerides/diglycerides mixture
Type: physicochemical
From the text: Improved formulations have been prepared by solubilising lipophilic ingredients, which are known for their interesting cosmetic activity but also for their difficult usage due to their poor solubility and/or dispersion into common cosmetic matrixes.
Ceramides are major components (roughly 40%) of the lipidic layers of the epidermis barrier, which drive the balance between hydration and loss of water, having the important role of “cement” between the corneocytes, i.e. the brick cells forming the dermal layers. The high difficulty for the application of ceramides in cosmetics is their poor solubility: in order to solubilise them into esters, a heating step above 90° C. is normally required with possible damage of the ceramides.
The use of triglycerides/diglycerides mixture as a solubiliser has allowed the solubilisation of ceramide-3 also at high concentration (up to 50%) without excessive and long time heating steps, A liquid ingredient, easy to use by simple addition into the lipid phase of the cosmetic formulation, has been obtained so far.
Sericin is one of the two families of proteins constituting the pure silk secreted by the silkworm glands: its dimensions vary from 60 up to 500 kDa. […]

| concentration at which ceramide-3 is solubilised (triglycerides/diglycerides mixture as solubiliser, without excessive and long time heating steps) | Molecule | dissolution of high molecular weight sericin (in mixtures of triglycerides/diglycerides from olive, compared with other commonly used vehicles or solubilisers) |
| --- | --- | --- |
| up to 50% | CCCCCCCCCCCCCCCCCC(=O)N[C@@H](CO)[C@H](O)[C@H](O)CCCCCCCCCCCCCC [ceramide-3] | – |
| – | sericin | successfully dissolved |

From patent US20100297047A1, “ESTERS OF GLYCEROL AND THEIR USES IN COSMETIC AND PHARMACEUTICAL APPLICATIONS” (BIOPHIL ITALIA S.P.A., priority 2007, published 2010)
